Measurements as given in ChEMBL document CHEMBL4359904, “Structural tuning of acridones for developing anticancer agents targeting dihydrofolate reductase” (Bioorg Med Chem Lett, 2019).
Calls of active or inactive are those of the source. The calls are words filed in the database; no cut-off is given here.

Legend:
K562 [1] = experiment: Growth inhibition of human K562 cells incubated for 48 hrs by sulforhodamine B assay; assay type: functional; details: K562, 48 h
MOLT-4 = experiment: Growth inhibition of human MOLT4 cells incubated for 48 hrs by sulforhodamine B assay; assay type: functional; details: MOLT-4, 48 h
RPMI-8226 = experiment: Growth inhibition of human RPMI8226 cells incubated for 48 hrs by sulforhodamine B assay; assay type: functional; details: RPMI-8226, 48 h
HOP-92 = experiment: Growth inhibition of human HOP92 cells incubated for 48 hrs by sulforhodamine B assay; assay type: functional; details: HOP-92, 48 h
NCI-H226 = experiment: Growth inhibition of human NCI-H226 cells incubated for 48 hrs by sulforhodamine B assay; assay type: functional; details: NCI-H226, 48 h
NCI-H460 = experiment: Growth inhibition of human NCI-H460 cells incubated for 48 hrs by sulforhodamine B assay; assay type: functional; details: NCI-H460, 48 h
COLO 205 = experiment: Growth inhibition of human COLO205 cells incubated for 48 hrs by sulforhodamine B assay; assay type: functional; details: COLO 205, 48 h
HCT-15 = experiment: Growth inhibition of human HCT15 cells incubated for 48 hrs by sulforhodamine B assay; assay type: functional; details: HCT-15, 48 h
SW-620 = experiment: Growth inhibition of human SW620 cells incubated for 48 hrs by sulforhodamine B assay; assay type: functional; details: SW-620, 48 h
SF-539 = experiment: Growth inhibition of human SF539 cells incubated for 48 hrs by sulforhodamine B assay; assay type: functional; details: SF-539, 48 h
SNB-19 = experiment: Growth inhibition of human SNB19 cells incubated for 48 hrs by sulforhodamine B assay; assay type: functional; details: SNB-19, 48 h
LOX IMVI = experiment: Growth inhibition of human LOXIMVI cells incubated for 48 hrs by sulforhodamine B assay; assay type: functional
MDA-MB-435 = experiment: Growth inhibition of human MDA-MB-435 cells incubated for 48 hrs by sulforhodamine B assay; assay type: functional; details: MDA-MB-435, 48 h
SK-MEL-2 = experiment: Growth inhibition of human SK-MEL-2 cells incubated for 48 hrs by sulforhodamine B assay; assay type: functional; details: SK-MEL-2, 48 h
SK-MEL-28 = experiment: Growth inhibition of human SK-MEL-28 cells incubated for 48 hrs by sulforhodamine B assay; assay type: functional; details: SK-MEL-28, 48 h
IGROV-1 = experiment: Growth inhibition of human IGROV1 cells incubated for 48 hrs by sulforhodamine B assay; assay type: functional; details: IGROV-1, 48 h
OVCAR-4 = experiment: Growth inhibition of human OVCAR4 cells incubated for 48 hrs by sulforhodamine B assay; assay type: functional; details: OVCAR-4, 48 h
SK-OV-3 = experiment: Growth inhibition of human SKOV3 cells incubated for 48 hrs by sulforhodamine B assay; assay type: functional; details: SK-OV-3, 48 h
A498 = experiment: Growth inhibition of human A498 cells incubated for 48 hrs by sulforhodamine B assay; assay type: functional; details: A498, 48 h
ACHN = experiment: Growth inhibition of human ACHN cells incubated for 48 hrs by sulforhodamine B assay; assay type: functional
Hs-578T = experiment: Growth inhibition of human Hs578T cells incubated for 48 hrs by sulforhodamine B assay; assay type: functional
T47D = experiment: Growth inhibition of human T47D cells incubated for 48 hrs by sulforhodamine B assay; assay type: functional
MDA-MB-468 = experiment: Growth inhibition of human MDA-MB-468 cells incubated for 48 hrs by sulforhodamine B assay; assay type: functional; details: MDA-MB-468, 48 h
K562 [2] = experiment: Growth inhibition of human K562 cells at 10^-5 M incubated for 48 hrs by sulforhodamine B assay relative to control; assay type: functional; details: K562, 48 h, read-out: GI
UO-31 = experiment: Growth inhibition of human UO31 cells at 10^-5 M incubated for 48 hrs by sulforhodamine B assay relative to control; assay type: functional; details: UO-31, 48 h, read-out: GI
HT-29 = experiment: Growth inhibition of human HT-29 cells at 10^-5 M incubated for 48 hrs by sulforhodamine B assay relative to control; assay type: functional; details: HT-29, 48 h, read-out: GI
[3] = test system: Panel NCI-60 (60 carcinoma cell lines); experiment: Growth inhibition of human NCI60 cells at incubated for 48 hrs by sulforhodamine B assay; assay type: functional
C6 = experiment: Induction of morphological changes in rat C6 cells assessed as increase in total length of processes measured after 24 hrs by inverted microscopy analysis relative to control; assay type: functional
[4] = biological target: T1, Dihydrofolate reductase (Homo sapiens) (UniProt P00374); experiment: Binding affinity to human dihydrofolate reductase at 5 uM assessed as decrease in absorption band by UV-visible spectroscopic analysis
T1 sequence (whole entry): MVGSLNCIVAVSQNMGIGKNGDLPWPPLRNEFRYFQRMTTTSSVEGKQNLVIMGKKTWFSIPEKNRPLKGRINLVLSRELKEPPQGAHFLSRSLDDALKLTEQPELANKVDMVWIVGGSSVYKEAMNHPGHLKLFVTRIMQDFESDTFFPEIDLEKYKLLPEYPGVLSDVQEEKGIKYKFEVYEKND

[5] = read-out: pLC50 (the source's name) (converted)
[6] = read-out: LC50 (the source's name)

`O=c1c2ccccc2n(CC2CO2)c2ccccc12` (racemic) was tested, and the GI50 (K562 [1]) was 214 nM, the CC50 (K562 [1]; [5]) was > 100000 nM and the TGI (K562 [1]; read-out: pTGI) was > 100000 nM. For the same compound, the GI50 (MOLT-4; read-out: GI50) was 40 nM, the CC50 (MOLT-4; [6]) was > 100000 nM and the GI50 (MOLT-4; read-out: pGI50 (converted)) was 41.7 nM. For the same compound, the CC50 (MOLT-4; [5]) was > 100000 nM, the TGI (MOLT-4; read-out: pTGI (converted)) was 316 nM and the GI50 (RPMI-8226) was 302 nM. For the same compound, the CC50 (RPMI-8226; [5]) was > 100000 nM, the TGI (RPMI-8226; read-out: pTGI (converted)) was 1100 nM and the GI50 (HOP-92) was 324 nM. The CC50 (HOP-92; [5]) was > 100000 nM, the TGI (HOP-92; read-out: pTGI (converted)) was 3890 nM and the GI50 (NCI-H226) was 302 nM. For the same compound, the CC50 (NCI-H226; [5]) was > 100000 nM, the TGI (NCI-H226; read-out: pTGI (converted)) was 1480 nM and the GI50 (NCI-H460) was 380 nM. For the same compound, the CC50 (NCI-H460; [5]) was > 100000 nM, the TGI (NCI-H460; read-out: pTGI (converted)) was 1660 nM and the GI50 (COLO 205) was 245 nM. The CC50 (COLO 205; [5]) was 64600 nM, the TGI (COLO 205; read-out: pTGI (converted)) was 1410 nM and the GI50 (HCT-15) was 295 nM. The CC50 (HCT-15; [5]) was > 100000 nM, the TGI (HCT-15; read-out: pTGI (converted)) was 4570 nM and the GI50 (SW-620; read-out: GI50) was 50 nM. The CC50 (SW-620; [6]) was > 50 nM, the GI50 (SW-620; read-out: pGI50 (converted)) was 56.2 nM and the CC50 (SW-620; [5]) was > 100000 nM. The TGI (SW-620; read-out: pTGI (converted)) was 1200 nM, the GI50 (SF-539) was 347 nM and the CC50 (SF-539; [5]) was > 100000 nM. The TGI (SF-539; read-out: pTGI (converted)) was 1780 nM, the GI50 (SNB-19) was 490 nM and the CC50 (SNB-19; [5]) was > 100000 nM. It also gave a TGI (SNB-19; read-out: pTGI (converted)) of 4370 nM, a GI50 (LOX IMVI; read-out: GI50) of 120 nM and a CC50 (LOX IMVI; [6]) of 5120 nM. For the same compound, the GI50 (LOX IMVI; read-out: pGI50 (converted)) was 126 nM, the CC50 (LOX IMVI; [5]) was 5130 nM and the TGI (LOX IMVI; read-out: pTGI (converted)) was 646 nM. For the same compound, the GI50 (MDA-MB-435) was 282 nM, the CC50 (MDA-MB-435; [5]) was 4680 nM and the TGI (MDA-MB-435; read-out: pTGI (converted)) was 1230 nM. For the same compound, the GI50 (SK-MEL-2) was 234 nM, the CC50 (SK-MEL-2; [5]) was 2040 nM and the TGI (SK-MEL-2; read-out: pTGI (converted)) was 513 nM. It also gave a GI50 (SK-MEL-28) of 407 nM, a CC50 (SK-MEL-28; [5]) of 11000 nM and a TGI (SK-MEL-28; read-out: pTGI (converted)) of 1950 nM. It also gave a GI50 (IGROV-1) of 331 nM, a CC50 (IGROV-1; [5]) of 67600 nM and a TGI (IGROV-1; read-out: pTGI (converted)) of 2570 nM. For the same compound, the GI50 (OVCAR-4) was 813 nM, the CC50 (OVCAR-4; [5]) was > 100000 nM and the TGI (OVCAR-4; read-out: pTGI (converted)) was 3980 nM. For the same compound, the GI50 (SK-OV-3) was 1410 nM, the CC50 (SK-OV-3; [5]) was > 100000 nM and the GI50 (A498) was 1740 nM. The CC50 (A498; [5]) was 7240 nM, the TGI (A498; read-out: pTGI (converted)) was 3550 nM and the GI50 (ACHN; read-out: GI50) was 90 nM. For the same compound, the CC50 (ACHN; [6]) was 790 nM, the GI50 (ACHN; read-out: pGI50 (converted)) was 95.5 nM and the CC50 (ACHN; [5]) was 794 nM. For the same compound, the TGI (ACHN; read-out: pTGI (converted)) was 282 nM, the GI50 (Hs-578T) was 575 nM and the CC50 (Hs-578T; [5]) was > 100000 nM. The TGI (Hs-578T; read-out: pTGI (converted)) was 3890 nM, the GI50 (T47D) was 891 nM and the CC50 (T47D; [5]) was > 100000 nM. For the same compound, the TGI (T47D; read-out: pTGI (converted)) was 5500 nM, the GI50 (MDA-MB-468) was 1200 nM and the CC50 (MDA-MB-468; [5]) was 7940 nM. It also gave a TGI (MDA-MB-468; read-out: pTGI (converted)) of 3090 nM, an inhibition of growth at 10 µM (K562 [2]) of 92% and an inhibition of growth at 10 µM (UO-31) of 100%. It also gave an inhibition of growth at 10 µM (HT-29) of 100%, a GI50 [3] of 1600 nM and a TGI [3] of 5600 nM. The CC50 [3, 6] was 44400 nM, the Activity (C6) was 16 - 18% and the Activity [4] was “Active”.
